# Results: patent US7354917B2, “Oxabispidine compounds and their use in the treatment of cardiac arrhythmias” (AstraZeneca AB, priority 2004, dated 2008)
# Counter-ions that a name gives are not always drawn.
# Molecular target: T1, HERG channel (Homo sapiens, UniProt Q12809)
# T1 construct: expressed in transfected cells
# Assay: Test B: Rb+-efflux assay for detection of HERG channel blockers
# Type: cell-based
# Conditions: depolarisation-induced Rb+-efflux from Chinese hamster ovary cells stably expressing the HERG-channel; read-out: pIC50 for HERG channel blockade (converted)
# Experimental: Rb^+-Efflux Assay for Detection of HERG Channel Blockers
# The human ether-a-go-go related gene (HERG) encodes the voltage-gated K^+ channel underlying the cardiac rapid delayed rectifier current IKr. The IC50 value for HERG channel blockade was determined using a high throughput functional assay based on depolarisation-induced Rb^+-efflux from Chinese hamster ovary cells stably expressing the HERG-channel.
# Cells were grown in Ham F12 (Life Technologies 31765-027) supplemented with 10% FBS and 0.6 mg/mL hygromycin B and were routinely passaged twice-weekly. For experimental studies, cells were plated at a density of 15,000 cells/well in Falcon, 384-well tissue culture-treated black-walled clear-bottomed plates and were thereafter incubated overnight at 37° C. in a cell culture incubator.
# Following incubating overnight, cell plates were washed and a Rb^+-Load buffer (a physiological buffer containing Rb^+) was added. Cell plates were then incubated for 3 hours and were thereafter washed. Following this wash, the test compounds were added. The cell plates were then incubated for another 10 minutes and, following this incubation period, external K^+ concentration was increased in order to depolarize the cells and activate HERG channels. After a ten minute exposure period to the increased K^+ concentration, supernatants were transferred to new microplates for subsequent determination of Rb^+ content, using Atomic Absorption Spectrometry analysis.
# The basal Rb^+ efflux (content of Rb^+ (mg/L) in supernatants of wells receiving only wash buffer) was defined as 100% inhibition and the stimulated Rb^+efflux (content of Rb^+ (mg/L) in supernatants of wells exposed only to increased external potassium concentration) was defined as 0% inhibition.
# Compound activity was expressed as: […]
# A: Rb^+ content in wells receiving test compound+increased external K^+.
# C: Stimulated Rb^+ efflux.
# T1 sequence (Q12809 whole entry): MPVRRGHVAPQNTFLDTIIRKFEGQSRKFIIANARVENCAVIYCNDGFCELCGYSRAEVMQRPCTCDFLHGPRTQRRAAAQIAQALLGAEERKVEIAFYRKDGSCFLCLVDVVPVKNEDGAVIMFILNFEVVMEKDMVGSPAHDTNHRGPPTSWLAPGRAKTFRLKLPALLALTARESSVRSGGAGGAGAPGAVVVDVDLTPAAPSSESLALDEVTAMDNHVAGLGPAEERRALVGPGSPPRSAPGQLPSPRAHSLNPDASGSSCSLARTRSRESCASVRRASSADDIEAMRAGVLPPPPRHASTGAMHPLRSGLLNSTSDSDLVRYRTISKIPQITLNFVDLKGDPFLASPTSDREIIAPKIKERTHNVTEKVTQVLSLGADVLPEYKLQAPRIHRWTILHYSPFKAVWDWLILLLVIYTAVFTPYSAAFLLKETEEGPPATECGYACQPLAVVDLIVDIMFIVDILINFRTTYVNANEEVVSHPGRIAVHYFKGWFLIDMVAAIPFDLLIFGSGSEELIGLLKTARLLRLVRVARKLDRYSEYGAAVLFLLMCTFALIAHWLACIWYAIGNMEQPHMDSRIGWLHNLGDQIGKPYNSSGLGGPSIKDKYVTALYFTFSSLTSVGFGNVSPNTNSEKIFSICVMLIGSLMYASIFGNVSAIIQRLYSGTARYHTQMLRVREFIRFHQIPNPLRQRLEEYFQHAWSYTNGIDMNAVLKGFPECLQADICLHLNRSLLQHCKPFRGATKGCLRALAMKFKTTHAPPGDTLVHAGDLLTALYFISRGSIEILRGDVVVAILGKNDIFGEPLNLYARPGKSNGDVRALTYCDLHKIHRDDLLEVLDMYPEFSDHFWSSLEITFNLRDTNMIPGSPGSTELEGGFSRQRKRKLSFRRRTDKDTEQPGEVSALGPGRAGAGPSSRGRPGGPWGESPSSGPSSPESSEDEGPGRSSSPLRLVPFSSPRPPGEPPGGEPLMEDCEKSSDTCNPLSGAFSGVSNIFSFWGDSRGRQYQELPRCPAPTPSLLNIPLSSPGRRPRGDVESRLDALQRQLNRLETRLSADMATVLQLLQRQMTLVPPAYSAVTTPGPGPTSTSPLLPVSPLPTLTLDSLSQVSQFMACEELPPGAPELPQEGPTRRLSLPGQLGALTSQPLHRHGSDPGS
row,SMILES,IC50 [µM]
1,"CN(C)C(=O)N(CCOc1ccc(C#N)cc1)CCN1CC2CN(Cc3ccc(OC(F)F)cc3)CC(C1)O2 [9 (xlvi), N-[2-(4-cyanophenoxy)ethyl]-N-(2-{7-[4-(difluoromethoxy)-benzyl]-9-oxa-3,7-diazabicyclo[3.3.1]non-3-yl}ethyl)-N′,N′-dimethylurea]",4.17
2,"CS(=O)(=O)N(CCOc1ccc(C#N)cc1)CCN1CC2CN(Cc3ccccc3)CC(C1)O2 [Example 2, N-[2-(7-Benzyl-9-oxa-3,7-diazabicyclo[3.3.1]non-3-yl)ethyl]-N-[2-(4-cyanophenoxy)ethyl]methanesulfonamide, tartaric acid salt]",2.82
3,"CS(=O)(=O)N(CCOc1ccc(C#N)cc1)CCN1CC2CN(Cc3ccc(F)cc3)CC(C1)O2 [Example 3, N-[2-(4-Cyanophenoxy)ethyl]-N-{2-[7-(4-fluorobenzyl)-9-oxa-3,7-diaza-bicyclo[3.3.1]non-3-yl]ethyl}methanesulfonamide]",1.58
